# Experimental data from patent US20060211736A1, “GLUTARIMIDE-CONTAINING POLYKETIDE ANALOGS AND METHODS THEREOF” (Wisconsin Alumni Research Foundation, priority 2005, published 2006).
# Columns and labels:
# [1] = stability in organic solvents and under fermentation condition (HPLC, 1H NMR); format: physicochemical; conditions: in CHCl3, DMSO, MeOH, and MeOH-H2O at 25° C. for 90 days
# Experimental: (§1) To verify the identity of the shunt metabolites, purified 4 (30 mg) was incubated in H2O-DMSO (9:1), and the resultant products were isolated and subjected to spectroscopic analysis.
# Seed medium (50 mL) in a 250-mL flask was inoculated with spores of S. platensis and incubated on a rotary shaker at 250 rpm and 28° C. for 30 hr. The resultant seed culture (25 mL) was then inoculated into production medium (600 mL containing 70 g/L XAD-16 resins) in a 2-L flask, which was incubated on a rotary shaker at 250 rpm and 28° C. for 2 days. The combined production culture broth (7 L) was filtered through gauze sponges to capture the XAD-16 resins. The resins were washed with Milli-Q H2O, dried at room temperature, and eluted with anhydrous ethanol. The ethanol extract was evaporated under reduced pressure to yield an oily residue. The residue was first analyzed by HPLC-UV (PDA) and LC-ESI-MS to confirm the presence of the various congeners of 110. Although they can survive during fermentation and be stabilized in H2O upon absorption to resins, 110 and its congeners 112-119 undergo rapid rearrangement in aqueous solution. They are stable in most organic solvents such as CHCl3, EtOAc, hexane, and absolute ethanol at room temperature. Consequently, isolation of these metabolites was performed mainly by repeated silica gel flash column chromatography using two different solvent systems (CHCl3/MeOH and EtOAc/hexane).
# [2] = tested on: K-ras transformed NIH/3T3 mouse fibroblasts; conditions: 0.4 ∝g/ml; cited from earlier work
# [3] = stability in water / H2O-mediated rearrangement (HPLC); format: physicochemical
# Experimental: as §1
# Large-scale Conversion of 4 to 1, 2, 3 and 5 in H2O. The purity of compound 4 was first analyzed by HPLC showing a single peak (purity >98%) and then confirmed by ^1H NMR spectrum (in CDCl3) showing no detectable contaminant. A solution of 4 (30 mg in 6 ml of DMSO) was then added to 55 ml Milli-Q H2O, and the resultant mixture was incubated at 37° C. for 2 hours. The reaction mixture was evaporated under high vacuo. The residue was subjected to silica gel flash column chromatography eluted with CHCl3-MeOH (from 10:0 to 9.4:0.6) to yield pure 1 (8 mg), 3 (9 mg), and a mixture of 2 and 5. The latter was further resolved by semi-preparative to afford pure 2 (6 mg) and 5 (4 mg). The ESI−MS, ^1H NMR and optical rotation data of compounds 1, 2, 3, and 5 were identical to those obtained from the corresponding compounds isolated from fermentation (the ^13C NMR spectrum of 1 was also measured, which is identical to that of 1 obtained from fermentation).
# H2O-mediated rearrangement of 112-114 and 117-119. […]
# Regioselective 1,4-reduction to access the reduced NK30424 scaffold. […] The reactions for 203, 209, and 210 were complete in 2, 8, and 12 hrs, respectively, as monitored by HPLC (yields>80%). […]
# experimental tumors = conditions: efficacy comparable to or better than MTM C; cited from earlier work
# HCT-116 cells = conditions: same assay conditions for both substances; cited from earlier work
structure (smiles),measurement,setting,value
"CO[C@H]1/C=C/CC/C=C/C(=O)O[C@H]([C@H](C)C(=O)CCCC2CC(=O)NC(=O)C2)/C(C)=C\[C@@H](C)[C@@H]1O [Compound 1, Migrastatin]",change of solutions upon HPLC and 1H NMR analyses,[1],no detectable change
"CO[C@@H](/C=C/CC/C=C/C(=O)O)[C@@H](O)[C@H](C)/C=C(\C)[C@H](O)[C@H](C)C(=O)CCCC1CC(=O)NC(=O)C1 [Compound 2, Dorrigocin A]",change of solutions upon HPLC and 1H NMR analyses,[1],no detectable change
same,reduction of the number of foci,[2],74%
"CO[C@@H](/C=C/CC/C=C/C(=O)O)[C@@H](O)[C@H](C)[C@@H](O)/C(C)=C/[C@H](C)C(=O)CCCC1CC(=O)NC(=O)C1 [Compound 3, Dorrigocin B]",change of solutions upon HPLC and 1H NMR analyses,[1],no detectable change
"CO[C@H]1/C=C/CC/C=C/C(=O)O[C@@H](/C(C)=C/[C@H](C)C(=O)CCCC2CC(=O)NC(=O)C2)[C@@H](C)[C@@H]1O [Compound 4, iso-Migrastatin]",stability in aqueous solution (H2O-mediated rearrangement),[3],rapid conversion
"CO[C@@H](/C=C/CC/C=C/C(=O)O)[C@@H](O)[C@H](C)/C=C(\C)[C@@H](O)[C@H](C)C(=O)CCCC1CC(=O)NC(=O)C1 [Compound 5, 13-epi-Dorrigocin A]",change of solutions upon HPLC and 1H NMR analyses,[1],no detectable change
"C/C(=C\[C@H](C)C(=O)C[C@H](O)CC1CC(=O)NC(=O)C1)[C@@H]1OC(=O)/C=C/CC/C=C/C=C\[C@@H]1C [Compound 104, lactimidomycin]",survival time of tumor-bearing mice,experimental tumors,prolonged the survival time
same,IC50 value with HCT-116 cells,HCT-116 cells,1.4 ng/mL
CO[C@@]12[C@H](COC(N)=O)C3=C(C(=O)C(C)=C(N)C3=O)N1C[C@@H]1N[C@@H]12 [MTM C],IC50 value with HCT-116 cells,HCT-116 cells,800 ng/mL
